Reference: patent US20030013764A1, “Use for a pyruvate dehydrogenase activator for the treatment of ischaemia in limbs” (priority 1995, published 2003)

Assays:
normal mice = details: cited from earlier work
[1] = tested on: contracting skeletal muscle of anaesthetised dogs; assay: Muscle fatigue in contracting gracilis muscle of anaesthetised dogs; format: in vivo, Beagle dogs; details: following treatment with DCA (300 mg.kg−1 as sodium salt, infusion 45 min before contraction); 20 min stimulation at 3 Hz; fatigue=(peak tension—end tension)/peak tension
Description: The invention will now be further described by reference to the accompanying, non-limiting, experimental methods. In the following expermimental methods we have used the PDH kinase inhibitor dichloroacetate to determine if inhibitors of PDH kinase can reduce the rate of fatigue in contracting skeletal muscle of anaesthetised dogs which has blood flow limited to the same extent as patients with intermittent claudication. Suitable doses of DCA include these in the range 30 to 300 mg.kg^−1. In the experimental methods which follow DCA was administered (at a dose of 300 mg.kg^−1) as the sodium salt of dichloroacetic acid.
Female Alderley Park Beagle dogs (12-18 kg) were pre-medicated with morphine (10 mg, i.m.) 30 minutes prior to induction of anaesthesia with sodium pentobarbitone (45 mg kg-1 i.v., Sagatal.). […] Rectal temperature was constantly monitored and maintained (range 36.2° C.-38.6° C.) with a homeothermic heating blanket (Harvard Instruments, Edenbridge. Kent. UK).
The left external jugular vein was cannulated for continuous administration of anaesthetic (sodium pentobarbitone 12 mg/ml at a rate of5 -6 ml/hour) using an infusion pump (injectomat S. Fresenius. Villiers. France). […] All pressures were measured using strain gauge manometers (PDCR 75. Druck Ltd. Barendeecht. Netherlands) attached to d.c. bridle amplifiers (Lectromed. MT8P. St. Peter. Jersey). […]

gracilis muscle = assay: Muscle metabolites in gracilis muscle biopsies of anaesthetised dogs; format: in vivo, Beagle dogs; design: Lactate / Ac.carn. (acetyl carnitine) / Free carnitine: unit not given here; details: for Ac.carn. (acetyl carnitine) / Free carnitine / Lactate / PCr (phosphocreatine): DCA treated
Description: Animals were divided into DCA treated and vehicle (isotonic saline) treated groups. DCA or vehicle was given after completion of the surgery by a constant infusion. 45 minutes later the contraction was started. Muscle fatigue was measured in both normal and flow limited muscles. Arterial blood samples were taken from the brachial artery and venous blood samples were taken from each gracilis muscle at rest, during contraction and following recovery. The contraction period was 20 minutes of stimulation of 3 Hz. Blood samples (0.4 ml) being taken for blood gas analysis and analysed immediately. Parameters recorded were pH, pCO2. pO2. oxygen saturation and total Haemoglobin. Further samples (1.0 ml) were taken for analysis of lactate, glucose and non esterified fatty acid (NEFA) concentration.
Following resting blood samples and after drug/vehicle infusion a resting muscle biopsy (6 mm diameter Bergstrom needle. Stille, Sweden and 6 mm diameter Allendale needle, Edinburgh, Scotland), was taken from each muscle. After 20 minutes of stimulation the muscle was then freeze clamped, while still being stimulated, and a thin portion of muscle was excised and frozen in liquid nitrogen (The whole process took less than 6 seconds with the top layer of muscle being frozen within 1 second). The muscle samples were then stored in liquid nitrogen before a portion was freeze dried and analysed.
The muscle sample was divided into two portions, one for analysis of ATP, phosphocreatine (PCr), creatine (Cr) and intramuscular lactate (Harris. R et al., Scand. Journal Clin Lab Invest.. 33,109-120, 1974). The other portion of muscle was stored wet in liquid nitrogen. Briefly, the first portion of muscle was freeze dried, dissected free of visible connective tissue and blood and then powdered and was extracted in ice cold perchloric acid (0.5M) and neutralised with potassium bicarbonate (2.2M). Glycogen content was assayed using the method described by Harris et al. 1974 (see above).
Acetylcarnitine, free carnitine were assessed, in the freeze dried extract, by the method described by Cederblad et al; Anal. Biochem., 185, (1990), 274-278. PDH activity (rest & exercise, active and total) from a sample of wet tissue using the method of Constantin-Teodosiu D et al.. “A sensitive radioisotopic assay of pyruvate dehydrogenase complex in human muscle tissue”. Anal. Biochem.. Volume 198, p347-351. 1991. This method is also described by Dumitru Constantin-Teodosiu. Doctoral Thesis “Regulation of pyruvate dehydrgenase complex activity and acetyl group formation in skeletal muscle during exercise”. Stockholm 1992. from the Department of Clinical Chemistry, Karolinska Institute. Huddinge University Hospital. S-141 86 Huddinge Sweden.

angina patients = details: cited from earlier work
volunteers = details: cited from earlier work
[2] = tested on: patients with class III heart failure; details: human, in vivo; cited from earlier work
[3] = Normal flow muscle after 20 min stimulation
[4] = Resricted flow muscle after 20 min stimulation
[5] = angina patients undergoing catheterisation

O=C(O)C(Cl)Cl [DCA, dichloroacetic acid]
increase in treadmill exercise duration (normal mice): 20% | oxidation of lactate (normal mice): increased | muscle fatigue [1]: 25.0% | Changes in Pcr (gracilis muscle; DCA treated versus control): reduced | Changes in lactate (gracilis muscle; DCA treated versus control): reduced | Ac.carn. (acetyl carnitine) (gracilis muscle; [3]): 9.6 ± 3.2 | Free carnitine (gracilis muscle; [3]): 15.5 ± 2.5 | Lactate (gracilis muscle; [3]): 5.4 ± 1.6 | PCr (phosphocreatine) (gracilis muscle; [3]): 44.7 ± 3.2 | Ac.carn. (acetyl carnitine) (gracilis muscle; [4]): 16.9 ± 2.6 | Free carnitine (gracilis muscle; [4]): 9.6 ± 2.2 | Lactate (gracilis muscle; [4]): 18.1 ± 4.0 | PCr (phosphocreatine) (gracilis muscle; [4]): 38.9 ± 3.0 | Ac.carn. (acetyl carnitine) (gracilis muscle; Resting muscle): 19.6 ± 1.0 | Free carnitine (gracilis muscle; Resting muscle): 5.4 ± 1.6 | Lactate (gracilis muscle; Resting muscle): 5.7 ± 1.4 | PCr (phosphocreatine) (gracilis muscle; Resting muscle): 55.1 ± 2.5 | Acetyl group availability (gracilis muscle; at rest and during contraction (RF muscle), DCA treated group versus control): higher | changes in heart rate or left ventricular inotropic state (LV dp/dtmax.) (angina patients; [5]): absence of changes | increase in stroke volume (angina patients; [5]): 13% | Myocardial efficiency (angina patients; angina patients, increased from 24%): 32% | reduction of lactate production (volunteers; volunteers during maximal and 50% maximal workload): up to 30% | increase in maximal work capacity (volunteers; volunteers): 10% | effects in patients with class III heart failure [2]: Beneficial effects
